According to patent US12668586B2, “AhR inhibitor, use thereof, and preparation method therefor” (CHONGQING PHARSCIN INNOBIO CO., LTD., priority 2021, dated 2026):
pIC50: −log10 of the molar value.

Each compound was assayed against T1, AhR (Homo sapiens, UniProt P35869) (assay: AhR inhibitory activity experiment, in vitro assay 1: HepG2-Lucia AhR cells, Lucia luciferase reporter (QUANTI-Luc)). Conditions: 24 hours incubation at 37° C., Lucia luciferase in supernatant, read-out: AhR inhibitory activity C50.
T1 sequence (P35869 11-848): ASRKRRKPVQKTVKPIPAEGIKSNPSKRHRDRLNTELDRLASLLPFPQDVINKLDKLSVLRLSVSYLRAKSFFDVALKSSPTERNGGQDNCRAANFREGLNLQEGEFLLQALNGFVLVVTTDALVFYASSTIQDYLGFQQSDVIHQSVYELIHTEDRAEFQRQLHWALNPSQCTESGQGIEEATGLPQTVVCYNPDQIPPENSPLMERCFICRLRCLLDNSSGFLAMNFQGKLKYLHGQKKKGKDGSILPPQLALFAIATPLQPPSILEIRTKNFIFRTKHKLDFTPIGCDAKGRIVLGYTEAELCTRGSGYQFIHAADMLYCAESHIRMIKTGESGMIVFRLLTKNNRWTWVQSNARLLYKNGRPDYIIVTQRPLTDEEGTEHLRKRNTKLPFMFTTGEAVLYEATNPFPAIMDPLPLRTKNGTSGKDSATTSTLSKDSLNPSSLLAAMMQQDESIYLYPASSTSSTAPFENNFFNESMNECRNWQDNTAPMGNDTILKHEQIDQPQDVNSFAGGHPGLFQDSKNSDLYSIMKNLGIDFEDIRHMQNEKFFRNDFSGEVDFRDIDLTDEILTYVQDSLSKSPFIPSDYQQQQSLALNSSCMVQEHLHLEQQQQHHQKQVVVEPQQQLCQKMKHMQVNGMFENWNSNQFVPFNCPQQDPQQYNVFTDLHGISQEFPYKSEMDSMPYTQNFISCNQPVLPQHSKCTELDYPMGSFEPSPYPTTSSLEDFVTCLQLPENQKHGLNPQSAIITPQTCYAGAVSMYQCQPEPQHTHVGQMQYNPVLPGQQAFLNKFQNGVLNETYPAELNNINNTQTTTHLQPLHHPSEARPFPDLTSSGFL
Type: cell-based
Experimental: Test Example: AhR Inhibitory Activity Experiment
When QUANTI-Luc™ (InvivoGen Company) testing reagents are used, AhR gene signaling pathways can be studied by monitoring the activity of Lucia luciferase in the cell culture supernatant.
In Vitro Assay 1: Assay on Inhibitory Activity in Human Cell Lines
Adherent cell layers of HepG2-Lucia™ AhR cells in a logarithmic growth phase were washed with PBS, and then the cells were isolated with trypsin. The isolated cells were centrifuged at 1000 RPM for 5 minutes, the supernatant was removed, and the cells were re-suspended with a test medium by 1.25×10^5 cells/ml.
20,000 cells were added to each well of a 96-well plate, and the 96-well plate was placed in a CO2 incubator to incubate the cells at 37° C. for 24 hours in the absence (negative control) or presence of test compounds with gradient increasing concentrations (typical dilutions: 169 pmol/L, 0.5 nmol/L, 1.5 nmol/L; 4.6 nmol/L, 13.7 nmol/L, 41 nmol/L, 123 nmol/L, 370 nmol/L, 1.1 μmol/L, 3.3 μmol/L and 10 μmol/L, in triplicate).
The 20 μl/well cell supernatant was transferred to a black 96-well plate, a 50 μL/well QUANTI-Luc™ solution was added, and the activity of Lucia luciferase was measured on a multifunctional ELISA reader Spark 10 M (Tecan Company) through a QUANTI-Luc™ luciferase assay system.
Experimental results are shown in Table 1, wherein for IC50 values, “++++” represents IC50<0.05 μM; “+++” represents IC50 between 0.05 μM and 0.2 μM; “++” represents IC50 between 0.2 μM and 1.0 μM; and “+” represents IC50>1.0 μM.

Structure (SMILES)	pIC50
C[C@H](NC(=O)c1cc(-c2ccc(Cl)cc2)nc(-c2cnn(C)c2)n1)c1ccc2ncn(C)c2c1 [Compound 54, (S)-6-(4-chlorophenyl)-N-(1-(1-methyl-1H-benzo[d]imidazol-6-yl)ethyl)-2-(1-methyl-1H-pyrazol-4-yl)pyrimidine-4-formamide]	> 7.30
O=C(N[C@H]1CCc2ncccc21)c1cc(-c2ccc(C(F)(F)F)cc2)nc(-c2cccnc2)n1 [Compound 55, (S)-6-(4-trifluoromethylphenyl)-N-((S)-6,7-dihydro-5H-cyclopentano[B]pyridin-5-yl)-2-(pyridin-3-yl)pyrimidine-4-formamide]	> 7.30
Cn1cc(-c2nc(C(=O)N[C@H]3CCc4ncccc43)cc(-c3ccc(C(F)(F)F)cc3)n2)cn1 [Compound 56, (S)-6-(4-trifluoromethylphenyl)-N-((S)-6,7-dihydro-5H-cyclopentano[B]pyridin-5-yl)-2-(1-methyl-1H-pyrazol-4-yl)pyrimidine-4-formamide]	> 7.30
C[C@H](NC(=O)c1cc(-c2ccc(Cl)cc2)nc(-c2cnn(C)c2)n1)c1ccc(C#N)c(F)c1 [Compound 57, (S)-6-(4-chlorophenyl)-N-(1-(3-fluoro-4-cyanophenyl)ethyl)-2-(1-methyl-1H-pyrazol-4-yl)pyrimidine-4-formamide]	> 7.30
C[C@H](NC(=O)c1cc(-c2ccc(C#N)cc2)nc(-c2cnn(C)c2)n1)c1ccnc(F)c1 [Compound 58, (S)-6-(4-cyanophenyl)-N-(1-(2-fluoro-4-pyridine)ethyl)-2-(1-methyl-1H-pyrazol-4-yl)pyrimidine-4-formamide]	6.70 to 7.30
Cc1noc(C)c1-c1nc(C(=O)N[C@@H](C)c2ccnc(F)c2)cc(-c2ccc(Cl)cc2)n1 [Compound 59, (S)-6-(4-chlorophenyl)-N-(1-(2-fluoro-4-pyridine)ethyl)-2-(3,5-dimethylisoxazol-4-yl)pyrimidine-4-formamide]	< 6.00
C[C@H](NC(=O)c1cc(-c2ccc(Cl)cc2)nc(-c2ccc(C#N)cc2)n1)c1ccnc(F)c1 [Compound 60, (S)-6-(4-chlorophenyl)-N-(1-(2-fluoro-4-pyridine)ethyl)-2-(p-cyanophenyl)pyrimidine-4-formamide]	< 6.00
Cn1cc(-c2nc(C(=O)N[C@H]3CCc4ncccc43)cc(-c3ccc(OC(F)(F)F)cc3)n2)cn1 [Compound 61, (S)-6-(4-trifluoromethoxyphenyl)-N-((S)-6,7-dihydro-5H-cyclopentano[B]pyridin-5-yl)-2-(1-methyl-1H-pyrazol-4-yl)pyrimidine-4-formamide]	< 6.00
O=C(N[C@H]1CCc2ncccc21)c1cc(-c2ccc(Cl)cc2)nc(-c2ccnc(F)c2)n1 [Compound 62, (S)-6-(4-chlorophenyl)-N-((S)-6,7-dihydro-5H-cyclopentano[B]pyridin-5-yl)-2-(2-fluoro-4-pyridine)pyrimidine-4-formamide]	> 7.30
